Test results reported in ChEMBL document CHEMBL1201862, “PubChem BioAssay data set” (2004).
Active and inactive are the calls of the source.

What was measured:
[1] = target: FAD-linked sulfhydryl oxidase ALR (Homo sapiens, UniProt P55789); assay: ALR-catalysed DTT oxidation blockers – biochemical, H2O2 detection, luminescence, cherry-pick, dose response (AID 493248)
[2] = target: Glutathione-S-transferase (Schistosoma japonicum, UniProt Q26513); assay: GST-antibody interaction or FRET quenching – biochemical, TR-FRET, artefact control for Vif-APOBEC3G degradation inhibitor project, dose response (AID 1117362); type: functional
Glutathione-S-transferase, sequence (Q26513 whole entry): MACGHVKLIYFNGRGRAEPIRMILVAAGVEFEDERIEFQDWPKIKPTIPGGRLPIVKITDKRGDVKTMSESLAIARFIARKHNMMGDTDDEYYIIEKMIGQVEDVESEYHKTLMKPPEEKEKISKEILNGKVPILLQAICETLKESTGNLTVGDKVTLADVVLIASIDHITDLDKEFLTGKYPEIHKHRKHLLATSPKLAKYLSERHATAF

[3] = target: T1, Rac GTPase-activating protein 1 (Homo sapiens, UniProt Q9H0H5); assay: blockers of MgcRacGAP-driven Rac1 GTP hydrolysis – biochemical, ADP Hunter fluorescence, primary and confirmatory, confirmation (AID 624330); type: functional
T1 sequence (Q9H0H5 whole entry): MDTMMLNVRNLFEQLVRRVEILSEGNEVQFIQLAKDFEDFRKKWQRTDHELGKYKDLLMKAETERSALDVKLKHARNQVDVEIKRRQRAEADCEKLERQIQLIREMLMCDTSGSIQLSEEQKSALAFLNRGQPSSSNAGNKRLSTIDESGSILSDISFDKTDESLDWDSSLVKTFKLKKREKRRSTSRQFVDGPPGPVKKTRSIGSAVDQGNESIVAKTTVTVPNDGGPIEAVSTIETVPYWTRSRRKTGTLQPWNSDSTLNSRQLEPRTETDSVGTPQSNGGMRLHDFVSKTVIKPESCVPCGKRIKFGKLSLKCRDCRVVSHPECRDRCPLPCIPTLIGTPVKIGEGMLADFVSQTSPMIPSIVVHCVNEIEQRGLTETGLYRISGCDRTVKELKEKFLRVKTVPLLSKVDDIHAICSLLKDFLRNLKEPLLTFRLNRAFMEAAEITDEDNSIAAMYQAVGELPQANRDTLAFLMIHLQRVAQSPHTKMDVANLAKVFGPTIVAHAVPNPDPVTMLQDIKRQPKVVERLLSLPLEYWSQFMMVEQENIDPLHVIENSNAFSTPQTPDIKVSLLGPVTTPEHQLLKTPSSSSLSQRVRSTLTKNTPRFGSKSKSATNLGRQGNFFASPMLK

[4] = target: Protein-tyrosine kinase 2-beta (Homo sapiens, UniProt Q14289);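 also: potency of inhibitors of PYK2 kinase phosphorylation of poly-GT substrate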
Protein-tyrosine kinase 2-beta, sequence (Q14289 whole entry): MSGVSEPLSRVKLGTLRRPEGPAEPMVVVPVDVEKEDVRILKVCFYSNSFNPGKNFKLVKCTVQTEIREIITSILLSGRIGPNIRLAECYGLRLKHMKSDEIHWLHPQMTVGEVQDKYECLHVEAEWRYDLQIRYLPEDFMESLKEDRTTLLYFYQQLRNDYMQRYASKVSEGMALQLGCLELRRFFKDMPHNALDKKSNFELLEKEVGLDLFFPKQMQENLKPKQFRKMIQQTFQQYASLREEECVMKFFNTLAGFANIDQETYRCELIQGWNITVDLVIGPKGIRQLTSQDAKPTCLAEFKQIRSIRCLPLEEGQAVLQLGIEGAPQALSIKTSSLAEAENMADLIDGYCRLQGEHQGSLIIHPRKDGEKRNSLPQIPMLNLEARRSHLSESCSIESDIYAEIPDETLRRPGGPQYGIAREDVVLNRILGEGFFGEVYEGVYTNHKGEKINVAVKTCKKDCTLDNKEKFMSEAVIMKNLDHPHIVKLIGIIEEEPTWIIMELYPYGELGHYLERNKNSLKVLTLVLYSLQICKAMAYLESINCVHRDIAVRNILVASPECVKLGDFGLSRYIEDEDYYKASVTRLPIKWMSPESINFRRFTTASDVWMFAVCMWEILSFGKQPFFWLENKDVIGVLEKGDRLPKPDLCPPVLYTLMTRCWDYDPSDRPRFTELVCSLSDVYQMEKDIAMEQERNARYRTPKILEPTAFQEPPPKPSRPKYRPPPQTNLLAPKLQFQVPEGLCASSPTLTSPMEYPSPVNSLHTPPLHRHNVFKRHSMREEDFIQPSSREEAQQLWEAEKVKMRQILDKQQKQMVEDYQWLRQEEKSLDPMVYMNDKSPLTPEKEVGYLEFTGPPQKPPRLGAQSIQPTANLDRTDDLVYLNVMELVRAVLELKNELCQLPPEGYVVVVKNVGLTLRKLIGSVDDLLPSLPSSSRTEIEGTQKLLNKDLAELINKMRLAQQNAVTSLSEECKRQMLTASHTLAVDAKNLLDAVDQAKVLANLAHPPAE

[5] = target: Estrogen receptor beta (Homo sapiens, UniProt Q92731); assay: blockers of SRC-3 recruitment to ERβ – biochemical, ELISA, streptavidin-HRP readout, orthogonal assay, confirmation (AID 1060)
Estrogen receptor beta, sequence (Q92731 whole entry): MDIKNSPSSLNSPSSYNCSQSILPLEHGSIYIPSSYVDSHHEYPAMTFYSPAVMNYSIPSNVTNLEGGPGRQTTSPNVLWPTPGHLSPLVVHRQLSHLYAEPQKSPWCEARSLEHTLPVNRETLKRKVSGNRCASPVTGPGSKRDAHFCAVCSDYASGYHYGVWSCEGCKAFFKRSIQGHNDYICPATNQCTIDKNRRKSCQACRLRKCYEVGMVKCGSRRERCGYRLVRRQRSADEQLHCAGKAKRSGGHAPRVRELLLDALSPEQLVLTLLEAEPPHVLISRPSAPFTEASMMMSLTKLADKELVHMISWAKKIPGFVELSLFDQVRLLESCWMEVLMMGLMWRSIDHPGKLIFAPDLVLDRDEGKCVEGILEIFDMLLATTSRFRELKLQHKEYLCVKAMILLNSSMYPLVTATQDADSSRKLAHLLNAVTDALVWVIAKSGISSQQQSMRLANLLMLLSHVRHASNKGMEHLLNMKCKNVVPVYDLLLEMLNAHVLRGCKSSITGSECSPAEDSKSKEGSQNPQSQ

[6] = target: Nonstructural protein 1 (Influenza A virus, UniProt Q194T2); type: functional, Influenza A virus (A/California/07/2009(H1N1))
Nonstructural protein 1, sequence (Q194T2 whole entry): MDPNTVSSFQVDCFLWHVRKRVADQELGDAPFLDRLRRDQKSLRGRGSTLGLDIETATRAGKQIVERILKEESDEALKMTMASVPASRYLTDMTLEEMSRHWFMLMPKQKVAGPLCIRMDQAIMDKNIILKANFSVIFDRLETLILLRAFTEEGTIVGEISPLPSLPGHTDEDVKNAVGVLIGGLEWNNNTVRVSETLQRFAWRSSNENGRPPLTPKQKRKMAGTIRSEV

[7] = target: T2, DNA repair and recombination protein RAD54-like (Homo sapiens, UniProt Q92698); assay: RAD54 Holliday junction migration blockers – biochemical, fluorescence, cherry-picked samples, dose series, confirmation (AID 651657); type: functional
T2 sequence (Q92698 whole entry): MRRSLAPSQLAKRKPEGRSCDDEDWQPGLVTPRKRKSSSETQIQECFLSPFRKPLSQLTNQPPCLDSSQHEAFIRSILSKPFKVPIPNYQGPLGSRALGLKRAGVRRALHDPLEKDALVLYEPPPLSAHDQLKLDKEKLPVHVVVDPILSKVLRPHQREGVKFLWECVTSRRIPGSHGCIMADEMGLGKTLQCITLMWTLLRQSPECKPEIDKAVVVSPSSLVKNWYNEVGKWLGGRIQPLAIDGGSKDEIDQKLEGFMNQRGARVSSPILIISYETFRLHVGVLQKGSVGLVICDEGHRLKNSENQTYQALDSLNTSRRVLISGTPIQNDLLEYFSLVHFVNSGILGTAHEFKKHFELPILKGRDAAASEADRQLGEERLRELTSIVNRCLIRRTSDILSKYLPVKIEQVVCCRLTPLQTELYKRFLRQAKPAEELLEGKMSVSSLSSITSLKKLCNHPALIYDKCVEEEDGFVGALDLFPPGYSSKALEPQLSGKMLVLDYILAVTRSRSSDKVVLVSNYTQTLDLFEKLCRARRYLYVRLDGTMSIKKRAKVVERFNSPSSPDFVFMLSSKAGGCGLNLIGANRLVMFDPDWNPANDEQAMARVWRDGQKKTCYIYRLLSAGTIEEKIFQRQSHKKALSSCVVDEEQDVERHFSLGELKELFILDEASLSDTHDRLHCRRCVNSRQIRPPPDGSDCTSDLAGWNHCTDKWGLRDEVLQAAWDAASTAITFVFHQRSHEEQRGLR

[8] = hepatoma cell viability loss – CellTiter-Glo luminescence, dry powder, set 20, cytotoxicity control, dose response (AID 1117291); type: functional, cell-based; conditions: HepG2
[9] = embryonic kidney cell viability loss – CellTiter-Glo luminescence, dry powder, set 20, cytotoxicity control, dose response (AID 1117293); type: functional, cell-based; conditions: HEK293
[10] = target: Metabotropic glutamate receptor 7 (Homo sapiens, UniProt Q14831); assay: potentiation of glutamate EC20 at mGlu7 – cell-based, calcium mobilization, Galpha15, dose response (AID 743384); type: functional
Metabotropic glutamate receptor 7, sequence (Q14831 whole entry): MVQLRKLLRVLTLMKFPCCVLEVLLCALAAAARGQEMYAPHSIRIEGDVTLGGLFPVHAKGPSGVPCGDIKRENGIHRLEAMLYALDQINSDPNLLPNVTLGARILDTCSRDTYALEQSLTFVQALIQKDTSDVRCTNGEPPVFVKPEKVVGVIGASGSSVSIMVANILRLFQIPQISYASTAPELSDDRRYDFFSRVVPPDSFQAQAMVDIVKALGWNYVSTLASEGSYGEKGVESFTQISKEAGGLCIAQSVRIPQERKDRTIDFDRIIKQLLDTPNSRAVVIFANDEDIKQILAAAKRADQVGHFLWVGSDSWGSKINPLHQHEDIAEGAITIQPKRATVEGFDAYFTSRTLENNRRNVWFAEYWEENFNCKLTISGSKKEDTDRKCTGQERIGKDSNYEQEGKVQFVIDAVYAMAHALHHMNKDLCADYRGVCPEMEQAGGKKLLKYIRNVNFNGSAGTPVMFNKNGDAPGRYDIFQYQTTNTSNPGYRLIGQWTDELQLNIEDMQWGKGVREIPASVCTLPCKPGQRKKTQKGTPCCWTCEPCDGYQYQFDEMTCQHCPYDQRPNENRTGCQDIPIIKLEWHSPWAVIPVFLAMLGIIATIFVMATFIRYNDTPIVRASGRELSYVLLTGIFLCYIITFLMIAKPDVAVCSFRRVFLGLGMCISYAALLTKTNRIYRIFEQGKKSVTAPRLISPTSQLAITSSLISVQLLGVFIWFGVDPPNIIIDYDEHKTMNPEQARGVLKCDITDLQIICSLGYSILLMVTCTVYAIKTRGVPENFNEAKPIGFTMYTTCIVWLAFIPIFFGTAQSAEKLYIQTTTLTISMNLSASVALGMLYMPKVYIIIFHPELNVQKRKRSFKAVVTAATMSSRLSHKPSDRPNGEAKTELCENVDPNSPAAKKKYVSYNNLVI

[11] = toxicity to HepG2 liver cells – cell-based, plate reader, dry powder, set 6, cytotoxicity control, dose response (AID 743311); type: functional
[12] = cells; conditions: HEK293
[13] = test system: Streptococcus sp. 'group A'; assay: Streptococcus pyogenes SK(-)GAS viability under kanamycin – luminescence, BacTiterGlo, confirmation, counter-screen for streptokinase expression inhibitor project, dose response (AID 1900); type: functional, organism-based
[14] = target: T3, Small ubiquitin-related modifier 1 (Homo sapiens, UniProt P63165); assay: SUMO1 protein-protein binding blockers, potency – biochemical, FRET, dose response (AID 624383); type: functional; conditions: read-out: IC50_Mean
T3 sequence (P63165 whole entry): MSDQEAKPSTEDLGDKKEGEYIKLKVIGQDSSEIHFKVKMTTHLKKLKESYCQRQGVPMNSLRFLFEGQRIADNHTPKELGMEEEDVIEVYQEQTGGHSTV

[15] = SNU-C1 cell viability reduction, dose response, CellTiter-Glo luminescence (AID 1117323); type: functional, cell-based
[16] = cytotoxicity toward Colo320 cells – cell-based, CellTiter-Glo luminescence, IC50, dose response (AID 1117334); type: functional; conditions: COLO 320
[17] = RKO cell viability reduction, dose response, CellTiter-Glo luminescence (AID 1117322); type: functional
[18] = cytotoxicity toward HT-29 cells – cell-based, CellTiter-Glo luminescence, IC50, dose response (AID 1117330); type: functional
[19] = Reduced DLD-1 viability, concentration-response, CellTiter-Glo luminescence (AID 1117352); type: functional
[20] = cytotoxicity toward HCT116 cells – cell-based, CellTiter-Glo luminescence, IC50, dose response (AID 1117332); type: functional; conditions: HCT-116
[21] = target: T3, Small ubiquitin-related modifier 1; assay: SUMO1 protein interaction blockers, potency – biochemical, fluorescence polarization, uHTS hits, dose response (AID 624382); type: functional; conditions: read-out: IC50_Mean
[22] = test system: Streptococcus; assay: GAS UMAA2166 growth inhibition – luminescence, BacTiterGlo, counter-screen for streptokinase expression inhibitor project, dose response (AID 1915); type: functional, organism-based;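 also: potency for reduction of bacterial viability or growth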
[23] = CellTiter-Glo luminescence survival assay, SW480 colon tumor line, concentration-response curve, half-maximal inhibitory concentration (AID 1117338); type: functional
[24] = target: T4, Hexokinase (Trypanosoma brucei, UniProt Q38C41); assay: Confirmation assay for inhibitors of Trypanosoma brucei hexokinase 1-Analogue-first series. [Related pubchem assays (depositor defined):AID1430, AID1632, AID2516, AID2560, AID2579, AID2600, AID449725, AID492951]; type: functional
T4 sequence (Q38C41 whole entry): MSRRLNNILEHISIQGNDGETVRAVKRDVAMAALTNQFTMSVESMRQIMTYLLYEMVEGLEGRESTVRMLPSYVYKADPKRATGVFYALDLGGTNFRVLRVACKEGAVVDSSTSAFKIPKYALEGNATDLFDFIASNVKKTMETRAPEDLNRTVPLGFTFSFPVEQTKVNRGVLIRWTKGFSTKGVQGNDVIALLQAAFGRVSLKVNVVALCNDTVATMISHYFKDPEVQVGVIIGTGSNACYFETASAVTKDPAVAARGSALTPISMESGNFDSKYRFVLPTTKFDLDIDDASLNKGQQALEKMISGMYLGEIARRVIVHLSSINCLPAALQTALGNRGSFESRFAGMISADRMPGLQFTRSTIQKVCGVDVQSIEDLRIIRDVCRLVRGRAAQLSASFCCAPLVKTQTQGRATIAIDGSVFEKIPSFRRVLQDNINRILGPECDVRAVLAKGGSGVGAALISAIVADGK

[25] = rise of 4N DNA cells, HeLa – IC50, dose response (AID 1117351); type: functional, cell-based
[26] = HCT116 cell viability decrease, GSK3B pretreatment – CellTiter-Glo, IC50, dose response (AID 1117339); type: functional; conditions: HCT-116
[27] = rise of 2N DNA cells, HeLa – IC50, dose response (AID 1117349); type: functional, cell-based

FAD-linked sulfhydryl oxidase ALR, sequence (P55789 whole entry): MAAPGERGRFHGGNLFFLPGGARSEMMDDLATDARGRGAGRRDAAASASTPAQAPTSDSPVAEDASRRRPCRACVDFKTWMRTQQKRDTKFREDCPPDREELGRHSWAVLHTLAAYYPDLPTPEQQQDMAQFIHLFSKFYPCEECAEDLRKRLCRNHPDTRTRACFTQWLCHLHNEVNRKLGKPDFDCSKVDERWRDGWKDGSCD

Question: For `CN1CCN(c2ccc(N)cc2)CC1`, which AC50 [1] is on record?
Answer: 3.83 µM (active)

Question: And the IC50 [2]?
Answer: 18.4 µM (active)

Question: And the IC50 [3]?
Answer: 32.3 µM (active)

Question: What about the IC50 [4] of the same compound?
Answer: 2.83 µM (active)

Question: What about the IC50 [5] of the same compound?
Answer: 7.13 µM (not active)

Question: And the IC50 [6]?
Answer: 53.7 µM (active)

Question: And the AC50 [7]?
Answer: 21.9 µM (active)

Question: Which AC50 [8] does the source give for `O=S(=O)(Nc1cc(C(F)(F)F)ccc1N1CCCCC1)c1cc(Cl)cc(Cl)c1` here?
Answer: 45.8 µM (active)

Question: And the AC50 [9]?
Answer: 41 µM (active)

Question: For `CC(=O)Nc1ccc(SCC(=O)c2cc(C)n(-c3cccc(F)c3)c2C)cc1`, which EC50 [10] is on record?
Answer: 1.6 µM (active)

Question: With `Sc1nc2cc(Cl)ccc2n1CCOc1ccccc1` as the compound, how does the AC50 [11] read?
Answer: > 52 µM (inactive)

Question: What about the AC50 [12] of the same compound?
Answer: > 52 µM (inactive)

Question: For `Cc1cc(C(C#N)c2ccc(Cl)cc2)c(Cl)cc1NC(=O)c1cc(I)cc(I)c1O` (stereo not drawn) [CLOSANTEL], which EC50 [13] is on record?
Answer: 114 nM (active)

Question: What about the IC50 [14] of the same compound?
Answer: 6.59 µM (active)

Question: What about the IC50 [15] of the same compound?
Answer: 0.0438 µM (active)

Question: What about the IC50 [16] of the same compound?
Answer: 116 nM (active)

Question: What about the IC50 [17] of the same compound?
Answer: 197 nM (active)

Question: And the IC50 [18]?
Answer: 126 nM (active)

Question: What about the IC50 [19] of the same compound?
Answer: 69 nM (active)

Question: What about the IC50 [20] of the same compound?
Answer: 97.8 nM (active)

Question: What about the IC50 [21] of the same compound?
Answer: > 66.6 µM (inactive)

Question: And the EC50 [22]?
Answer: 92 nM (active)

Question: What about the IC50 [23] of the same compound?
Answer: 46 nM (active)

Question: What about the IC50 [24] of the same compound?
Answer: 25 µM (inactive)

Question: For `CC(=O)O[C@@]12CO[C@@H]1C[C@H](O)[C@@]1(C)C(=O)[C@H](O)C3=C(C)[C@@H](OC(=O)[C@H](O)[C@@H](NC(=O)OC(C)(C)C)c4ccccc4)C[C@@](O)([C@@H](OC(=O)c4ccccc4)[C@H]21)C3(C)C` [DOCETAXEL], which IC50 [25] is on record?
Answer: 3.35 nM (active)

Question: What about the IC50 [15] of the same compound?
Answer: > 20 µM (inactive)

Question: And the IC50 [16]?
Answer: 1 nM (active)

Question: What about the IC50 [17] of the same compound?
Answer: 1 nM (active)

Question: What about the IC50 [18] of the same compound?
Answer: 1 nM (active)

Question: What about the IC50 [20] of the same compound?
Answer: 1 nM (active)

Question: And the IC50 [26]?
Answer: 1 nM (active)

Question: And the IC50 [23]?
Answer: 1 nM (active)

Question: What about the IC50 [27] of the same compound?
Answer: 3.1 nM (active)
